This is an account of results in publication PMC11013444, “3-NAntC: A Potent Crotoxin B-Derived Peptide against the Triple-Negative MDA-MB-231 Breast Cancer Cell Line” (Molecules, 2024).

Values after ≈ are worked out from the molar mass of the structure shown. “Also recorded” adds a separate entry of the source. Read-outs that look alike come from different tables or passages of the source. Where no end group is shown, it is not given here.

The test system of data set [1] is MDA-MB-231 cells. The data set is described as follows: cells. It is filed as cell-based, human. Particulars: for IC50: Homo sapiens, MDA-MB-231, MTT, range 0.2–2.0 µg/mL, Figure 4, read-out: IC50 (cell viability). The procedure:
(§1) MCF-7 (Luminal breast cancer), MDA-MB-231 (TNBC), and MCF10A (non-tumor mammary gland epithelial cells) were purchased from the Rio de Janeiro Cell Bank (BCRJ, Rio de Janeiro, RJ, Brazil). HMEC (Primary Mammary Epithelial Cells) and HDFa (Human Dermal Fibroblasts) cell lines were purchased from Gibco (Waltham, MA, USA). MCF-7 and MDA-MB-231 were cultured in an RPMI 1640 medium supplemented with 10% heat-inactivated FBS, 1% glutamine, and 1% antibiotic/antimycotic solution. MCF10A and HMEC were cultured in MEBM medium supplemented with 100 ng/mL cholera toxin, 2.5 mM L-glutamine, 5% horse serum, 10 µg/mL human insulin, 0.5 µg/mL hydrocortisone, and 10 ng/mL EGF. All cells used in this study were incubated at 37 °C under 5% CO2 and checked for authenticity through polymerase chain reaction (PCR) followed by fragment analysis of eight highly polymorphic microsatellite loci (short tandem repeat—STR) plus gender determination with score ≥ 80%.
(§2) Stock solutions of Peptides 1 to 12, doxorubicin, and cisplatin were prepared in PBS (1X). Doxorubicin and cisplatin were stored at −20 °C and the peptide solutions were freshly prepared before each experiment. The final concentration of PBS (1X) in the culture medium was lower than 0.02%. All the negative controls contained this vehicle in the same culturing conditions as previously described.
(§3) Cell viability assay was conducted using the MTT method. For treatments lasting 24 h, the cells were seeded at the density of 2 × 10^4 cells/well into 96-well sterile plates, and for treatments lasting 48 or 72 h, the cell density was 1 × 10^4 cells/well. The following day, cells were treated by applying 200 μL/well of each agent (Peptides 1 to 12, doxorubicin, or cisplatin) at the desired concentration and incubated for the duration of the treatment. Afterward, cells were incubated with 20 μL/well of an MTT solution (5 mg/mL) for 2.5 h. Then, formazan salts were solubilized with 200 μL of DMSO: isopropanol (3:1) and agitated for at least 15 min at room temperature. The absorbance was measured at 570 nm with a spectrophotometer (Molecular devices Spectra Max Plus 384—San Jose, CA, USA), and relative cell viability was calculated. To evaluate the mechanism of cell death, cell cultures were treated with peptides in the presence or absence of 3-methyladenine (3-MA) ([…]), which is an autophagy inhibitor [37]. After treatment, the MTT assay was carried out as previously described.

The subject of data set [2] is HDFa cells. In words: cells. It is filed as cell-based, human. The procedure:
as §1, §2, §3

In another data set the test system is zebrafish embryos. The data set is described as follows: In vivo zebrafish embryo toxicity study. The procedure:
Transgenic Tg(fli1:EGFP)^y1 zebrafish embryos were raised at 28 °C for 48 h in E3 embryo medium 0.2 mM 1-Phenyl-2-Thiourea (PTU). […] Zebrafish embryos obtained at 48 h post fertilization (hpf), n = 20 embryos/group, were subcutaneously injected with the 3-NAntC peptide at 0.0015, 0.015, 0.15, 75, and 150 mg/mL diluted in E3 embryo medium containing 0.003% 1-phenyl-2-thiourea (PTU) and the embryos were maintained at 28.5 °C. Pictures were taken after 24, 48, and 72 h of peptide exposure and the percentage of live animals, as well as the percentage of live animals with malformations, were visually analyzed.

The subject of data set [3] is HDFa cells. In words: Cell proliferation assay (BrdU incorporation) in HDFa. It counts as cell-based, human. The following applies: 72 hours, range 0.2–1.0 µg/mL. The method, then: (§4) Cell proliferation was assessed with the BrdU method using the Cell Proliferation ELISA, BrdU (colorimetric) kit from Roche (Basel, Switzerland). Cell seeding and treatments were carried out as presented in Section 4.3. BrdU-labeling (20 μL/well) was added and incubated for 2.5 h. Then, ELISA was performed with an anti-BrdU-POD antibody, followed by washing and substrate solutions. The substrate was then developed for 15 min and the reaction was stopped with HCl (6M). The absorbance was measured at 495 nm with a spectrophotometer (Molecular devices Spectra Max Plus 384—San Jose, CA, USA), and the relative cell proliferation was calculated.

For another data set, the system named is MCF10A cells. It is filed as cell-based, human. The procedure: as §1, §2, §3
The next data set relates to MCF-7 cells. It is filed as cell-based, human. Particulars: for cell viability: 1 µg/mL. The procedure:
as §1, §2, §3

Another data set deals with HMEC cells. It counts as cell-based, human. Particulars: 72 h, 1 µg/mL. The procedure: as §1, §2, §3
Data set [4] concerns MDA-MB-231 cells. In words: LDH release assay. It counts as cell-based, human. Particulars: 0–1.0 µg/mL. The method, then: The CyQUANT LDH Cytotoxicity Assay (Thermo Fisher, Waltham, MA, USA) was employed to determine LDH release as a measure of plasma membrane damage, an important indicator of necrosis and pyroptosis. […] Cell seeding and treatments proceeded as presented in Section 4.3. After treatment incubation, 20 μL of supernatant was transferred to an EIA/RIA plate. The Reaction Mixture (20 μL/well) was added and incubated at room temperature for 30 min in the dark. Afterward, 60 μL/well of the Stop Solution was added and the absorbance of the reaction mixtures was quantified at both 490 nm and 680 nm with a spectrophotometer (Molecular devices Spectra Max Plus 384—San Jose, CA, USA). The absorbance at 680 nm was subtracted from the value at 490 nm, and then relative LDH release was calculated.

Data set [5] relates to MDA-MB-231 cells. In words: Cell proliferation assay (BrdU incorporation) in MDA-MB-231. It counts as cell-based, human. Particulars: for IC50 (proliferation): range 0.2–1.0 µg/mL. The method, then: as §4

For `COc1cccc2c1C(=O)c1c(O)c3c(c(O)c1C2=O)C[C@@](O)(C(=O)CO)C[C@@H]3O[C@H]1C[C@H](N)[C@H](O)[C@H](C)O1` [Doxorubicin, doxorubicin, reference compound], the concentration for half-maximal inhibition (IC50) worked out at 0.21 µg/mL (≈ 0.386 µM) with MDA-MB-231 cells [1] (48 hours); 0.17 µg/mL (≈ 0.313 µM) in the data set on MDA-MB-231 cells [1] (72 hours); 1.12 µg/mL (≈ 2.06 µM) with HDFa cells [2] (Homo sapiens, HDFa, 24 hours, MTT, range 0.2–2.0 µg/mL, Figure 4, read-out: IC50 (cell viability)).
For the molecule `CC[C@H](C)[C@H](NC(=O)[C@H](CCSC)NC(=O)[C@H](CCCCN)NC(=O)[C@H](CC(N)=O)NC(=O)[C@H](Cc1ccccc1)NC(=O)[C@H](CCC(N)=O)NC(=O)[C@H](CC(C)C)NC(=O)[C@H](CC(C)C)NC(=O)[C@@H](N)Cc1c[nH]cn1)C(=O)N[C@@H](CCCCN)C(=O)N[C@@H](Cc1ccccc1)C(=O)N[C@@H](CCC(=O)O)C(=O)N[C@H](C(=O)N[C@@H](CCCNC(=N)N)C(=O)N[C@@H](CCCCN)C(=O)N[C@@H](CC(N)=O)C(=O)N[C@@H](C)C(=O)N[C@H](C(=O)N1CCC[C@H]1C(=O)N[C@@H](Cc1ccccc1)C(=O)O)[C@@H](C)CC)[C@@H](C)O` [Peptide 1], the cell viability in the data set with MDA-MB-231 cells [1] (24 h, 2.5 µg/mL) is recorded as 94.4 ± 4.6%; in the data set with MDA-MB-231 cells [1] (48 h, 2.5 µg/mL) it was 90.7 ± 3.0%.
The molecule `CSCC[C@H](N)C(=O)N[C@@H](Cc1ccccc1)C(=O)N[C@@H](Cc1ccc(O)cc1)C(=O)N1CCC[C@H]1C(=O)N[C@@H](CC(=O)O)C(=O)N[C@@H](CO)C(=O)N[C@@H](CCCNC(=N)N)C(=O)N[C@@H](CS)C(=O)N[C@@H](CCCNC(=N)N)C(=O)NCC(=O)N1CCC[C@H]1C(=O)N[C@@H](CO)C(=O)N[C@@H](CCC(=O)O)C(=O)N[C@H](C(=O)O)[C@@H](C)O` [Peptide 3-NAntC] came in with a lethality in the data set with zebrafish embryos (150 mg/mL, after 48 and 72 h of treatment, n = 20 embryos/group) of 45%. Besides, in the data set with zebrafish embryos (150 mg/mL, n = 20 embryos/group), the “surviving embryos exhibiting malformations” value was 50–60%. For the same molecule, the “lethality and non-lethal events (malformations)” value with zebrafish embryos (1.5 to 150 µg/mL and 75 mg/mL, embryos 48 hpf, n = 20 embryos/group, 24, 48, 72 h) is reported as “no lethal effects; also recorded: did not show lethality or significant non-lethal events (malformations)”. Moreover, the “LD50 (dose that kills 50% of the embryos)” value in the data set with zebrafish embryos (doses up to 150 mg/mL) is “could not be determined”. For the same molecule, the “IC50 (proliferation)” value is > 1 µg/mL with HDFa cells [3], 0.46 µg/mL (≈ 0.279 µM) with MDA-MB-231 cells [5] (24h), 0.46 µg/mL (≈ 0.279 µM) in the data set with MDA-MB-231 cells [5] (48h) and 0.37 µg/mL (≈ 0.225 µM) in the data set on MDA-MB-231 cells [5] (72h). Further, the cell viability in the data set on MDA-MB-231 cells [1] (24 h, 0.8 µg/mL) was found to be 77.5 ± 15.0%; in the data set with MDA-MB-231 cells [1] (48 h, 0.8 µg/mL) it was 60.8 ± 17.9%; in the data set with MDA-MB-231 cells [1] (48 h, 1 µg/mL), 64.6 ± 14.5%; in the data set on MDA-MB-231 cells [1] (72 h, 1 µg/mL) it was 49.0 ± 17.5%; in the data set with MCF10A cells (24 h, 2.5 µg/mL), 93.4 ± 7.4%; in the data set on MCF10A cells (48 h, 2.5 µg/mL), 80.5 ± 5.3%. Further, the cell viability in the data set with MCF10A cells (48 h, 20 µg/mL) was found to be 65.9 ± 10.3%; in the data set with MCF-7 cells (48 h), 54.7 ± 15.5%; in the data set with MCF-7 cells (72 h), 62.9 ± 26.0%; in the data set with HMEC cells it was 98.2 ± 13.8%. The “IC50 (cell viability)” value in the data set on MDA-MB-231 cells [1] (48 h) is 1.44 µg/mL (≈ 0.875 µM); in the data set with MDA-MB-231 cells [1] (72 h) it was 0.55 µg/mL (≈ 0.334 µM); in the data set with HDFa cells [2] (72 h), > 2 µg/mL; with MCF10A cells (48 h) it was > 20 µg/mL; in the data set on MCF-7 cells (24 h) it was 2.31 µg/mL (≈ 1.4 µM); with MCF-7 cells (48 h), 1.49 µg/mL (≈ 0.905 µM). The “IC50 (cell viability)” value in the data set on MCF-7 cells (72 h) amounted to 1.49 µg/mL (≈ 0.905 µM). In the data set with HDFa cells [2] (72 h, 1 µg/mL), the cellular viability result is “higher than 80%”. For the same molecule, the LDH release result in the data set with MDA-MB-231 cells [4] (24 and 48 h treatments) is “did not consistently increase LDH release”; in the data set with MDA-MB-231 cells [4] (72 h) it was “increase in LDH release”. Moreover, the maximum proliferation inhibition in the data set on MDA-MB-231 cells [5] (0.6 µg/mL, 48 h, mean ± SEM) turned out to be 71.1 ± 27.1%.
Consider AIPFYAFY [Peptide 2], for which the “IC50 (cell viability)” value with MDA-MB-231 cells [1] (24 h), in the data set with MDA-MB-231 cells [1] (48 h) and with MCF10A cells (48 h) was > 20 µg/mL throughout. The cell viability was determined as 81.6 ± 5.0% in the data set on MDA-MB-231 cells [1] (24 h, 2.5 µg/mL); 85.0 ± 7.9% in the data set on MDA-MB-231 cells [1] (48 h, 2.5 µg/mL); 85.7 ± 11.2% in the data set on MCF10A cells (48 h, 2.5 µg/mL).
